Read-outs that look alike come from different tables or passages of the source.
What was measured:
CYP2J2 [1] = target: T1, CYP2J2 (Homo sapiens, UniProt P51589); conditions: 2.5 µM, pH 7.4; for Disappearance rate in microsomal incubations: 10 min; for TKI levels removed from incubations: 30 min
T1 sequence (P51589 1-502): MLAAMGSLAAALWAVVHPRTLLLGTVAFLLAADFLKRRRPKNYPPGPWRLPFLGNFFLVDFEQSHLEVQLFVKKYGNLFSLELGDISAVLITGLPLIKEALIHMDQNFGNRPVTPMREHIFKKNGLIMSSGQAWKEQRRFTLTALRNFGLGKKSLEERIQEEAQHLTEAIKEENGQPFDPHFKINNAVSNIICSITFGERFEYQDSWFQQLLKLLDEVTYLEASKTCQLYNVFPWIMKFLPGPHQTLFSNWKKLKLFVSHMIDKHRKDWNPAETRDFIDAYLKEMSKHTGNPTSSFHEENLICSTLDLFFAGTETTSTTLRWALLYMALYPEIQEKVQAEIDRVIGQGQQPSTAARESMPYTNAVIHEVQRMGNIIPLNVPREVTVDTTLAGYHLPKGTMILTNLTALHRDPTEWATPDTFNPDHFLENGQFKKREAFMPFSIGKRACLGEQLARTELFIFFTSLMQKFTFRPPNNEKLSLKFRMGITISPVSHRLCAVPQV
Experimental: (§1) The disappearance rate was calculated after 10 min (see Table 1 ) taking into account the percent of TKI removed from the incubation (0.25 nmole of TKI and 20 pmoles of CYP in 100 µL) and are expressed in (nmole of degraded TKI/(nanomole of CYP×min)).
(§2) Protein pellets were discarded.

CYP3A4 [2] = target: T2, CYP3A4 (Homo sapiens, UniProt P08684); conditions: 2.5 µM, pH 7.4; for Disappearance rate in microsomal incubations: 10 min; for TKI levels removed from incubations: 30 min
Experimental: as §1, §2

CYP2J2 [3] = target: T1, CYP2J2; experiment: TKI disappearance in culture media of HepG2 cells infected with adenovirus expressing CYP2J2; conditions: up to 72 hours, result in words
Source text: as §2

CYP1A1 [4] = target: T3, CYP1A1 (Homo sapiens, UniProt P04798); experiment: TKI disappearance in microsomal incubations with cDNA expressed CYP1A1; type: in vitro ADME; design: purchased BD Bioscience (Belgium), BD Gentest; host or cells: insect cells
T3 sequence (P04798 1-512): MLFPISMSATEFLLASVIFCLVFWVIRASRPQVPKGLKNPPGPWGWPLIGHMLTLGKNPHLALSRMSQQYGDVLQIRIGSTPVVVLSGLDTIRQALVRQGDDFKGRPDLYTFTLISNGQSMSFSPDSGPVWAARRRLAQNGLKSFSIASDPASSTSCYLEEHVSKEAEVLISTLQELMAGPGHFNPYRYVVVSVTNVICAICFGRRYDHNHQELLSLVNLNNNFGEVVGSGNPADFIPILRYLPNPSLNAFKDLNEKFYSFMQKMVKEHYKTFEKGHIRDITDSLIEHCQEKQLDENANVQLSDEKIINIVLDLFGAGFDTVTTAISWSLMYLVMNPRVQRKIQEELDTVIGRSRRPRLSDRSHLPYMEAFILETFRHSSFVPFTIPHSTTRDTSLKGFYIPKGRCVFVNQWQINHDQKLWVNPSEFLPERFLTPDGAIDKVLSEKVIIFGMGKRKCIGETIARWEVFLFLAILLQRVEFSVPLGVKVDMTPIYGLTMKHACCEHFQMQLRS
Experimental: as §1, §2

CYP1B1 [5] = target: T4, CYP1B1 (Homo sapiens, UniProt Q16678); experiment: TKI disappearance in microsomal incubations with cDNA expressed CYP1B1; type: in vitro ADME; design: purchased BD Bioscience (Belgium), BD Gentest; host or cells: insect cells; conditions: TKI 2.5 µM at T = 0, first 10 minutes, 20 picomoles of CYP
T4 sequence (Q16678 1-543): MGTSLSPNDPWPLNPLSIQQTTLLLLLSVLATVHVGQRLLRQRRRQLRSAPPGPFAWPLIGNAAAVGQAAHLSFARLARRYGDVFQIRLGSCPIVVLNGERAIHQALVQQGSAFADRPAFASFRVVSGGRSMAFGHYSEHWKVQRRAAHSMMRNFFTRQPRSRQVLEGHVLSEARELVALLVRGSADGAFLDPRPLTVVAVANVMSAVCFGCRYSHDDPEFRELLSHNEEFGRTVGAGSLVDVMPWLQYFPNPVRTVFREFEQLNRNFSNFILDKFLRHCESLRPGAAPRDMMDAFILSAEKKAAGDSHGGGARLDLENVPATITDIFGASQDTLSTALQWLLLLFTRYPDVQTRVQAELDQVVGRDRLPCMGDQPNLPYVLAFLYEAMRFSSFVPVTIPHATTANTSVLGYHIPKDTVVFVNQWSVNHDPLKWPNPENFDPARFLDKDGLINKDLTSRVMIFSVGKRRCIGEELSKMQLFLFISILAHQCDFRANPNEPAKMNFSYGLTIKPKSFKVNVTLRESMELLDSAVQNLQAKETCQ
Experimental: as §1, §2

CYP1B1 [6] = target: T4, CYP1B1; experiment: TKI disappearance in culture media of HepG2 cells infected with adenovirus expressing CYP1B1; conditions: up to 72 hours, result in words
CYP1A1 [7] = target: T3, CYP1A1; conditions: HepG2 cells infected with CYP1A1 adenovirus; up to 72 hours; result in words
Source text: as §2

CYP2J2 [8] = conditions: approved drugs identified as CYP2J2 inhibitors; cited from earlier work
CYP1A1 [9] = target: T3, CYP1A1; conditions: read-out: Affinity Constant, Km, Km of the parent TKI (imatinib) for production of the labelled metabolite, values marked (*), previous published study ref 18; cited from earlier work
CYP1A1 [10] = target: T3, CYP1A1; experiment: Michaelis-Menten kinetics of TKI metabolite production, cDNA expressed CYP1A1 microsomes; conditions: for Relative Intrinsic Clearance: Vmax/Km for production of the labelled metabolite, as fold difference of the intrinsic clearance of CYP3A4; for Km: read-out: Affinity Constant, Km, Km of the parent TKI for production of the labelled metabolite, 10 pmoles CYP, TKI 0.5-20 µM, 15 min
CYP1B1 [11] = target: T4, CYP1B1; experiment: Michaelis-Menten kinetics of TKI metabolite production, cDNA expressed CYP1B1 microsomes; conditions: for Relative Intrinsic Clearance: Vmax/Km for production of the labelled metabolite, as fold difference of the intrinsic clearance of CYP3A4; for Km: read-out: Affinity Constant, Km, Km of the parent TKI for production of the labelled metabolite, 10 pmoles CYP, TKI 0.5-20 µM, 15 min
CYP1A1 [12] = target: T3, CYP1A1; design: purchased BD Bioscience (Belgium), BD Gentest; host or cells: insect cells; method as in earlier work; conditions: compared with CYP1B1 and 3A4, ref 22 (Kamath et al.); cited from earlier work
CYP1B1 [13] = target: T4, CYP1B1; design: purchased BD Bioscience (Belgium), BD Gentest; host or cells: insect cells; method as in earlier work; conditions: compared with CYP1A1 and 3A4, ref 22 (Kamath et al.); cited from earlier work
CYP3A4 [14] = target: T2, CYP3A4; design: purchased BD Bioscience (Belgium), BD Gentest; host or cells: insect cells; method as in earlier work; conditions: compared with CYP1A1 and 1B1, ref 22 (Kamath et al.); cited from earlier work
CYP2J2 [15] = target: T1, CYP2J2; experiment: Michaelis-Menten kinetics of TKI metabolite production, cDNA expressed CYP2J2 microsomes; conditions: for Km: read-out: Affinity Constant, Km, Km of the parent TKI for production of the labelled metabolite, 10 pmoles CYP, TKI 0.5-20 µM, 15 min
CYP3A4 [16] = target: T2, CYP3A4; experiment: Michaelis-Menten kinetics of TKI metabolite production, cDNA expressed CYP3A4 microsomes; conditions: for Km: read-out: Affinity Constant, Km, CYP3A4, Km of the parent TKI for production of the labelled metabolite, 10 pmoles CYP, TKI 0.5-20 µM, 15 min
[17] = CYP1A1, TKI 2.5 µM at T = 0, first 10 minutes, 20 picomoles of CYP

T2 sequence (P08684 whole entry): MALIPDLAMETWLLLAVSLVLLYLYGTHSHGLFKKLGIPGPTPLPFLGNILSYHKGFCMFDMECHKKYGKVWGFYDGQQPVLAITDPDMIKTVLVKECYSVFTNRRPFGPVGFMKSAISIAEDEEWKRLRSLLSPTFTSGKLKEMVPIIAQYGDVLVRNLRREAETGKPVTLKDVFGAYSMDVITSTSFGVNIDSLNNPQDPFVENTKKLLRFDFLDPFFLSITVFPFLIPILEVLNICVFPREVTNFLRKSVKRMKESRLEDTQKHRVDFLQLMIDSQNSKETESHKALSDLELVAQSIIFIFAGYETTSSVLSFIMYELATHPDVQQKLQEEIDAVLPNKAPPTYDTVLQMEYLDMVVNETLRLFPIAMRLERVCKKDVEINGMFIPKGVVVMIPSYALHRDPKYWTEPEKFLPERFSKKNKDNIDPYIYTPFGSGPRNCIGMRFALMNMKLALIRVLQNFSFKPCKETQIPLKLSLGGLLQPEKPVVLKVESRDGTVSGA

With `Cc1cn(-c2cc(NC(=O)c3ccc(C)c(Nc4nccc(-c5cccnc5)n4)c3)cc(C(F)(F)F)c2)cn1` [Nilotinib, nilotinib] the “Disappearance rate in microsomal incubations” value (“Disappearance rate” below) (CYP2J2 [1]) was 0.7 nmoles of TKI degraded/(min×nmole of CYP), the “TKI levels removed from incubations” value (CYP2J2 [1]) was “more than 60%” and the “Disappearance rate” value (CYP3A4 [2]) was 1.2 nmoles of TKI degraded/(min×nmole of CYP). For the same compound, the “TKI levels removed from incubations” value (CYP3A4 [2]) was “more than 60%”, the “TKI removal from HepG2 cell culture media” value (shortened to “TKI removal”) (CYP2J2 [3]) was “mainly removed by CYP2J2” and the “Disappearance rate” value (CYP1A1 [4]; [17]) was 0.2 nmoles of TKI degraded/(min×nmole of CYP). The “Disappearance rate” value (CYP1B1 [5]) was 0.3 nmoles of TKI degraded/(min×nmole of CYP) and the “TKI removal” value (CYP1B1 [6]) was “very slowly by CYP1B1”.

With `CCN(CC)CCNC(=O)c1c(C)[nH]c(/C=C2\C(=O)Nc3ccc(F)cc32)c1C` [Sunitinib, sunitinib] the “TKI removal” value (CYP1A1 [7]) was “equal rate for CYP1A1 and 2J2”, the “Disappearance rate” value (CYP1A1 [4]) was 0.6 nmoles of TKI degraded/(min×nmole of CYP) and the “Disappearance rate” value (CYP1B1 [5]) was 0.1 nmoles of TKI degraded/(min×nmole of CYP).

In the case of `C#C[C@]1(O)CC[C@H]2[C@@H]3CCC4=Cc5oncc5C[C@]4(C)[C@H]3CC[C@@]21C` [danazol], the CYP2J2 inhibition (CYP2J2 [8]) is listed as “CYP2J2 inhibitors”.

In the case of `Cc1ccc(NC(=O)c2ccc(CN3CCNCC3)cc2)cc1Nc1nccc(-c2cccnc2)n1` [N-demethyl-imatinib], the Km (CYP1A1 [9]) is given as 7.6 µM.

For `CCNCCNC(=O)c1c(C)[nH]c(/C=C2\C(=O)Nc3ccc(F)cc32)c1C` [Z-deethyl-sunitinib #2, Z-deethyl-sunitinib], the “Relative Intrinsic Clearance” value (CYP1A1 [10]) was 0.2 fold diff, the Km (CYP1A1 [10]) was 6.7 µM and the “Relative Intrinsic Clearance” value (CYP1B1 [11]) was 0.1 fold diff.

For `CCCc1nc2c(C)cc(-c3nc4ccccc4n3C)cc2n1Cc1ccc(-c2ccccc2C(=O)O)cc1` [telmisartan], the CYP2J2 inhibition (CYP2J2 [8]) is given as “CYP2J2 inhibitors”.

In the case of `CCNCCNC(=O)c1c(C)[nH]c(/C=C2\C(=O)Nc3ccc(F)cc32)c1C` [E-deethyl-sunitinib #1, E-deethyl-sunitinib], the “Relative Intrinsic Clearance” value (CYP1A1 [10]) is reported as 0.1 fold diff, the Km (CYP1A1 [10]) is reported as 6.9 µM and the “Relative Intrinsic Clearance” value (CYP1B1 [11]) is reported as 0.1 fold diff. For the same compound, the Km (CYP1B1 [11]) was 2.7 µM.

For `Fc1ccc(C(c2ccc(F)cc2)N2CCN(C/C=C/c3ccccc3)CC2)cc1` [flunarizine], the CYP2J2 inhibition (CYP2J2 [8]) is listed as “CYP2J2 inhibitors”.

With `Cc1nc(Nc2ncc(C(=O)Nc3c(C)cccc3Cl)s2)cc(N2CCN(CCO)CC2)n1` [Dasatinib, dasatinib] the “Disappearance rate” value (CYP2J2 [1]) was 1.1 nmoles of TKI degraded/(min×nmole of CYP), the “TKI levels removed from incubations” value (CYP2J2 [1]) was “more than 60%” and the “Disappearance rate” value (CYP3A4 [2]) was 1.2 nmoles of TKI degraded/(min×nmole of CYP). For the same compound, the “TKI levels removed from incubations” value (CYP3A4 [2]) was “more than 60%”, the “TKI removal” value (CYP1A1 [7]) was “CYP2J2>CYP1A1>CYP1B1” and the “TKI removal” value (CYP2J2 [3]) was “CYP2J2>CYP1A1>CYP1B1”. For the same compound, the “Disappearance rate” value (CYP1A1 [4]; [17]) was 0.9 nmoles of TKI degraded/(min×nmole of CYP), the “Disappearance rate” value (CYP1B1 [5]) was 1.0 nmoles of TKI degraded/(min×nmole of CYP) and the “Degradation in similar microsomal incubations” value (“Degradation” for short) (CYP1A1 [12]) was “comparable rate of disappearance”. The “Degradation” value (CYP1B1 [13]) was “comparable rate of disappearance”, the “Degradation” value (CYP3A4 [14]) was “comparable rate of disappearance” and the “TKI removal” value (CYP1B1 [6]) was “CYP2J2>CYP1A1>CYP1B1”.

In the case of `CNC(=O)c1cc(Oc2ccc(NC(=O)Nc3ccc(Cl)c(C(F)(F)F)c3)cc2)ccn1` [Sorafenib, sorafenib], the “Disappearance rate” value (CYP1A1 [4]; [17]) is reported as 0.4 nmoles of TKI degraded/(min×nmole of CYP), the “Disappearance rate” value (CYP1B1 [5]) is reported as 0.0 nmoles of TKI degraded/(min×nmole of CYP) and the “TKI removal” value (CYP1B1 [6]) is reported as “very slowly by CYP1B1”.

In the case of N-oxide-nilotinib [NO-nilotinib #1], the Km (CYP1A1 [10]) is reported as 3 µM, the Km (CYP2J2 [15]) is reported as 0.8 µM and the Km (CYP3A4 [16]) is reported as 27.6 µM.

For `Cc1nc(Nc2ncc(C(=O)Nc3c(C)cccc3Cl)s2)cc(N2CCNCC2)n1` [dehydroxyethyl-dasatinib], the “Relative Intrinsic Clearance” value (CYP1A1 [10]) was 0.5 fold diff, the Km (CYP1A1 [10]) was 4.7 µM and the “Relative Intrinsic Clearance” value (CYP1B1 [11]) was 1.1 fold diff. The Km (CYP1B1 [11]) was 2.2 µM, the “Relative Intrinsic Clearance” value (CYP2J2 [15]; Vmax/Km for production of the labelled metabolite, as fold difference of the intrinsic clearance of CYP3A4) was 0.5 fold diff and the Km (CYP2J2 [15]) was 3.9 µM. The “Relative Intrinsic Clearance” value (CYP3A4 [16]; CYP3A4 (reference, set to 1.0), Vmax/Km for production of the labelled metabolite) was 1.0 fold diff and the Km (CYP3A4 [16]) was 71.4 µM.
